Test: Blocker Index (BI), expert grader ranking of malodor strength of isovaleric acid swatch treated with test material
Experimental: Making Swatches Treated with the Test Material A clean swatch is treated with 13 μL of a known concentration of a test sample material resulting in an about 1 cm of the solution on the clean swatch. Just like the reference swatches, the test sample material swatch is dried in a vented hood for 30 minutes and then wrapped in aluminum foil to prevent contamination. The test material swatches and the FFI reference swatches should be made within 2 hrs of each other. The test material swatch must be used within 0.5 to 12 hours and discarded after 12 hours. Assigning the FFI to the Test Material At least two perfumers/expert graders are used to assign an FFI grade to a test sample. The perfumer/expert grader smells the test sample swatch by holding that swatch 1 inch from their nose with their nose centered over the area where the test sample was pipetted on to the fabric and then assigns the test sample an FFI grade using the FFI reference scale anchor swatches as references. In cases where the test sample material is graded greater than 3, the test material is not a blocker material or the concentration of the material needs to be lowered and reevaluated to determine if a lower level has a malodor blocker functionality. Method for Assigning the BI to Test Sample The first step in the method for assigning a BI to a test sample material on the BI reference scale is to create the BI reference swatches. […] Fabric swatches for this test are white knit polycotton (4 inch×4 inch) swatches from EMC ordered as PC 50/50. The supplier is instructed to strip the swatches first, stripping involves washing twice with a fragrance-free detergent and rinsing three times. […] The BI scale contains one clean swatch with no malodor applied. […] These solutions are pipetted to the middle of the swatches. […] After drying for 30 minutes in a vented hood, the swatches are wrapped in aluminum foil to prevent odor contamination to the treated swatch. A clean untreated swatch is also included as the lowest anchor point of reference for malodor strength on the BI scale. The BI reference scale swatches should be used within 0.5 to 12 hours and discarded after 12 hours. The swatches are used as scale anchor points when graders evaluate a test sample(s) and are assigned a Blocker Index (BI) as show in Table 12. […] The perfumer/expert grader is asked to rank order swatches according to a scale between 0 and 3.
The reference swatches represent the 0, 1, 2, and 3 BIs on the BI reference scale, Table 12. The expert grader should familiarizes him/herself with the strength of the odor on the BI reference swatches by sniffing each one starting at 0 (the lowest odor strength) and ending at 3 (the highest odor strength). This should be done prior to evaluating the swatch treated with the test material.
Making the Malodorous Swatch and Treating it with a Test Material To evaluate the BI, the test material is applied to a malodorous swatch to determine how well the test material blocks the malodor. […] After drying the malodorous swatch a known concentration of test material solution, between 1 ppm and 100 ppm is pipetted onto the malodorous swatch. […] It is sometimes necessary to evaluate several levels of the test material between about 1 and about 100 ppm to determine the BI. Assigning the BI to the Test Material At least two perfumers/expert graders are used to assign the BI to the test sample. […] The test sample swatch is assigned a BI at or between numbers on the BI in table.

[1] = test material Conc 10 ppm on swatch with 20 μL 0.08% isovaleric acid, scale 0 to 3
[2] = test material at 10 ppm on isovaleric acid swatch
[3] = test material at 50 ppm on isovaleric acid swatch
[4] = test material Conc 50 ppm on swatch with 20 μL 0.08% isovaleric acid, scale 0 to 3

In the case of `CCCCCCCCCCCCCCCC(=O)OC` [Material 109], the BI [1] is reported as 2.0.

`CCC(=O)OC1CC2C3C=CCC3C1C2(C)C` (stereo not shown) gave a BI [2] of 1.5 and a BI [3] of 2.2.

Compound `CC1CCC2(C(C)C)CC(C)OC2C1` (stereo not shown) has a BI [2] of 2.0 and a BI [3] of 2.2.

Compound `COC(=O)OC1CC/C=C\CCC1` (stereo not shown) [Material 1139] has a BI [1] of 2.0 and a BI [4] of 2.7.

Compound `C=CC(C)=CCC=C(C)C` [Material 524] has a BI [4] of 2.8.

With `O=C1CCC2CCCCC2O1` (stereo not shown) [3,4,4a,5,6,7,8,8a-octahydrochromen-2-one] the BI [1] was 2.0 and the BI [4] was 2.0.

With `CCCCCCCCCCCO` [Undecanol] the BI [4] was 2.3.

In the case of `CCCCCCCCCCCCO` [Material 174], the BI [4] is reported as 2.3.

In the case of `CCC(O)COC1CCCCC1C(C)(C)C` (stereo not shown) [Material 677], the BI [1] is reported as 2.3 and the BI [4] is reported as 2.0.

`CC1(C)CCc2ccc(CCC=O)cc21` [Material 261] showed a BI [1] of 1.8 and a BI [4] of 1.3.

In the case of `CC(=O)OC1CC2CC1C1CC=CC21` (stereo not shown) [Material 281], the BI [1] is reported as 2.0 and the BI [4] is reported as 2.0.

`CC1(C)CCc2ccc(CCC=O)cc21` showed a BI [2] of 1.5 and a BI [3] of 2.7.

For `C=C1CCC2OC2(C)CCC2C1CC2(C)C` (stereo not shown) [Material 1148], the BI [4] was 2.3.

`CCOC(=O)OC1C(C)CCC(C)C1C` (stereo not shown) [Material 1005] showed a BI [4] of 2.6.

With `CC(C)(C)C1CCCCC1` [4-tert-butyl cyclohexane] the BI [1] was 2.0 and the BI [4] was 2.0.

For `CC(=O)OCCCCCCC(C)C` [Material 204], the BI [1] was 2.0 and the BI [4] was 2.7.

`CC(CCO)CCc1ccccc1` (stereo not shown) [Material 962] gave a BI [1] of 2.3 and a BI [4] of 1.7.

With `CCCCCCCCCCCC(=O)OCC` [Material 391] the BI [4] was 2.2.

In the case of `CC1(C)C2CCC3(C2)C1C(=O)CCC3(C)C` (stereo not shown) [Material 1149], the BI [1] is reported as 1.5 and the BI [4] is reported as 2.3.

From patent US11334695B2, “Antiperspirant and deodorant compositions comprising malodor reduction compositions” (The Procter & Gamble Company, priority 2014, dated 2022)
